Measured values published in patent US20260344668A1, “PHENYLPYRAZOLE COMPOUND, AND PLANT DISEASE CONTROL METHOD” (priority 2022, published 2026).

Legend:
[1] = system: Phakopsora pachyrhizi; assay: Test Example 15 Control Test Against Soybean Rust Fungus (spore germination, 96 well titer plate); type: cell-based; settings: treatment concentration 1 ppm, 23° C., several hours
Procedure: (§1) The term of “non-treated well” in Test Example 4, Test Example 5, and Test Example 6 represents a well wherein a test was carried out under the same conditions as those described in each Test Example except for dispensing DMSO instead of a diluted solution with DMSO comprising the Present compound. Also, the term of “non-treated” in Test Examples 15 to 17 represents a test which was carried out under the same conditions as those described in each Test Example except for dispensing DMSO instead of a diluted solution with DMSO comprising the Present compound. Also, the term of “non-treated leaf disk” in Test Example 7 represents a leaf disk wherein a test was carried out under the same conditions as those described in the Test Example except for dispensing DMSO instead of a diluted solution with DMSO comprising the Present compound. Also, the term of “non-treated” in Test Example 10 and Test Example 11 means that a diluted solution with water of a formulation comprising the Present compound was not sprayed.
The Present compound was diluted with DMSO to obtain a diluted solution containing 150 ppm of the compound, and 1 μL of the diluted solution was dispensed into a titer plate (96 well), and thereto was then dispensed 149 μL of an aqueous suspension (1.0×10^4/mL) of spores of Phakopsora pachyrhizi to which spores of Phakopsora pachyrhizi were suspended in advance. This plate was cultured at 23° C. for several hours, and then germinated spores of Phakopsora pachyrhizi were counted. As a result, when the treatment concentration was 1 ppm, the number of germinated spores in each well comprising any one of the Present compound 1, 11, 17, 18, 20, 23, 30, 33, 34, 35, 36, 37, 38, 39, 40, 41, 42, 43, 44, 46, 47, 48, 49, 50, 51, 52, 53, 54, 55, 56, 57, 58, 62, 63, 64, 65, 66, 67, 68, 69, 70, 71, 72, 73, 74, 75, 76, 77, 78, 79, 80, 81, 82, 83, 84, 85, 86, 87, 88, 89, 90, 91, 92, 93, 94, 95, 96, 97, 98, 99, 100, 101, or 102 as the test compound was 50% or less relative to the number of germinated spores in the non-treated well.

[2] = system: soybean rust fungus (Phakopsora pachyrhizi) having an amino acid substitution of F129L in a mitochondrial cytochrome b protein; assay: Test Example 7 Control Test Against Soybean Rust (leaf disk); type: in vivo; settings: 200 ppm, 10 μL per soybean leaf disk (cultivar: Kurosengoku), inoculated after 1 day
Procedure: as §1
A true leaf of a soybean (cultivar: Kurosengoku) was cut into a diameter of 1 cm to prepare each leaf disk. To each well of a 24 well microplate was dispensed 1 mL of an agar medium (agar concentration 1.2%), and then one of said leaf disk was placed on the agar medium in each well. To a mixture of Sorpol (registered trademark) 1200KX (0.5 μL), DMSO (4.5 μL), and xylene (5 μL) was added a DMSO solution (20 μL) comprising a test compound (10000 ppm), and the resulting mixture was mixed. The resulting mixture was diluted with ion exchange water to prepare a mixture comprising a prescribed concentration of the test compound.
The resulting mixture was sprayed into each leaf disk at a ratio of 10 μL per leaf disk. After 1 day, an aqueous suspension of spores of soybean rust fungus (Phakopsora pachyrhizi) having an amino acid substitution of F129L in a mitochondrial cytochrome b protein (1.0×10^5/mL) was inoculated by spraying on each leaf disk. After the inoculation, the microplate was placed into an artificial climate chamber (Lighting: 6 hours, Lights-out: 18 hours, Temperature: 23° C., Humidity: 60%). After 1 day, the leaf disks were air-dried until water droplets on the surfaces of the leaf disks disappeared, and the microplate was placed into the artificial climate chamber again for 12 days. Then, lesion area of soybean rust was investigated. As a result, when the prescribed concentration was 200 ppm, each lesion area of leaf disk treated with any one of the Present compound 9, 10, 11, 13, 14, 15, 16, 17, 18, 20, 32, 33, 34, 35, 36, 37, 38, 39, 40, 42, 43, 44, 47, 48, 49, 50, 51, 52, 53, 55, 56, 57, 58, 62, 63, 64, 65, 66, 67, 68, 69, 70, 71, 73, 74, 75, 76, 77, 78, 79, 80, 81, 82, 83, 84, 85, 86, 87, 88, 89, 90, 91, 92, 93, 94, 95, 96, 97, 98, 99, 100, 101, or 102 as the test compound was 30% or less relative to the lesion area of non-treated leaf disk.

[3] = system: Phakopsora pachyrhizi; assay: Test Example 11 Control Test Against Soybean Rust (pot test, spraying before inoculation); type: in vivo; settings: 200 ppm foliage spray, soybeans (Kurosengoku), inoculated after 2 to 5 days
Procedure: as §1
A plastic pot was filled with soil, soybeans (cultivar: Kurosengoku) were seeded thereto, and cultured in a greenhouse for 10 to 14 days. The Present compound 9, 10, 11, 13, 14, 15, 17, 18, 20, 21, 22, 23, 26, 27, 33, 34, 35, 36, 37, 38, 39, 40, 41, 42, 43, 44, 46, 47, 53, 54, 55, 56, 57, 58, 66, 67, 68, 69, 70, 71, 73, 74, 75, 76, 77, 78, 79, 80, 81, 82, 83, 84, 85, 86, 87, 88, 89, 90, 91, 92, 93, 94, 95, 96, 97, 98, 99, 100, 101, or 102 formulated according to the method described in the Formulation Example 1 was mixed with water in such a way that the concentration thereof was 200 ppm, and the resulting mixture was sprayed to foliage of the above soybeans so as to adequately adhere onto the surfaces of leaves of the above soybeans. After spraying the mixture, the soybeans were air-dried. After 2 to 5 days, an aqueous suspension of spores of Phakopsora pachyrhizi was inoculated by spraying to the soybeans. After the inoculation, the soybeans were placed in a greenhouse at 23° C. in daytime and at 20° C. in nighttime under a humid condition for 1 to 2 day(s), then cultured in a greenhouse for 12 days, and then a lesion area was investigated. As a result, the lesion area in the soybeans treated with each of the above Present compound was 30% or less relative to the lesion area in the non-treated soybeans.

SMILES | number of germinated spores relative to the non-treated well [1] | lesion area relative to the lesion area of non-treated leaf disk [2] | lesion area relative to the lesion area in the non-treated soybeans [3]
O=S(=O)(c1cccs1)n1ccc(-c2ccc(F)cc2)n1 [compound 90] | ≤ 50% | ≤ 30% | ≤ 30%
O=S(=O)(c1cccs1)n1ccc(-c2ccc3ocnc3c2)n1 [compound 67] | ≤ 50% | ≤ 30% | ≤ 30%
Cc1cccc(S(=O)(=O)n2ccc(-c3cc(F)c(Br)c(F)c3)n2)c1 [compound 20] | ≤ 50% | ≤ 30% | ≤ 30%
O=S(=O)(c1ccccc1Cl)n1ccc(-c2cc(F)c(Br)c(F)c2)n1 [compound 11] | ≤ 50% | ≤ 30% | ≤ 30%
O=S(=O)(c1ccoc1)n1ccc(-c2cccc(F)c2)n1 [compound 95] | ≤ 50% | ≤ 30% | ≤ 30%
O=S(=O)(c1ccco1)n1ccc(-c2ccccc2)n1 [compound 85] | ≤ 50% | ≤ 30% | ≤ 30%
O=S(=O)(c1ccoc1)n1ccc(-c2cc(F)cc(F)c2)n1 [compound 74] | ≤ 50% | ≤ 30% | ≤ 30%
O=S(=O)(c1ccco1)n1ccc(-c2ccc(F)c(F)c2)n1 [compound 91] | ≤ 50% | ≤ 30% | ≤ 30%
O=S(=O)(c1ccoc1)n1ccc(-c2ccccc2)n1 [compound 86] | ≤ 50% | ≤ 30% | ≤ 30%
O=S(=O)(c1cccs1)n1ccc(-c2cc(F)cc(F)c2)n1 [compound 75] | ≤ 50% | ≤ 30% | ≤ 30%
O=S(=O)(c1cccnc1)n1ccc(-c2cc(F)cc(F)c2)n1 [compound 98] | ≤ 50% | ≤ 30% | ≤ 30%
O=S(=O)(c1ccco1)n1ccc(-c2ccc(F)cc2)n1 [compound 88] | ≤ 50% | ≤ 30% | ≤ 30%
O=S(=O)(c1cccs1)n1ccc(-c2ccccc2)n1 [compound 87] | ≤ 50% | ≤ 30% | ≤ 30%
O=S(=O)(c1cccnc1)n1ccc(-c2cccc(F)c2)n1 [compound 56] | ≤ 50% | ≤ 30% | ≤ 30%
Cn1cc(S(=O)(=O)n2ccc(-c3cc(F)c(Br)c(F)c3)n2)cn1 [compound 35] | ≤ 50% | ≤ 30% | ≤ 30%
O=S(=O)(c1cccnc1)n1ccc(-c2ccc(F)cc2)n1 [compound 57] | ≤ 50% | ≤ 30% | ≤ 30%
COc1ccc(-c2ccn(S(=O)(=O)c3cccnc3)n2)cc1 [compound 58] | ≤ 50% | ≤ 30% | ≤ 30%
O=S(=O)(c1cncc(F)c1)n1ccc(-c2cc(F)c(Br)c(F)c2)n1 [compound 100] | ≤ 50% | ≤ 30% | ≤ 30%
Cn1ccnc1S(=O)(=O)n1ccc(-c2cc(F)c(Br)c(F)c2)n1 [compound 38] | ≤ 50% | ≤ 30% | ≤ 30%
O=S(=O)(c1cccnc1)n1ccc(-c2ccc(F)c(F)c2)n1 [compound 101] | ≤ 50% | ≤ 30% | ≤ 30%
Cn1ccc(S(=O)(=O)n2ccc(-c3cc(F)c(Br)c(F)c3)n2)n1 [compound 34] | ≤ 50% | ≤ 30% | ≤ 30%
